1 compound from ChEMBL document CHEMBL4368932 (Bioorg Med Chem, 2019) can be followed below.

Calls of active or inactive are those of the source.

Series [1] concerns the target T1, Phosphatidylinositol 4,5-bisphosphate 3-kinase catalytic subunit delta isoform (Homo sapiens, UniProt O00329).
T1 sequence (O00329 whole entry): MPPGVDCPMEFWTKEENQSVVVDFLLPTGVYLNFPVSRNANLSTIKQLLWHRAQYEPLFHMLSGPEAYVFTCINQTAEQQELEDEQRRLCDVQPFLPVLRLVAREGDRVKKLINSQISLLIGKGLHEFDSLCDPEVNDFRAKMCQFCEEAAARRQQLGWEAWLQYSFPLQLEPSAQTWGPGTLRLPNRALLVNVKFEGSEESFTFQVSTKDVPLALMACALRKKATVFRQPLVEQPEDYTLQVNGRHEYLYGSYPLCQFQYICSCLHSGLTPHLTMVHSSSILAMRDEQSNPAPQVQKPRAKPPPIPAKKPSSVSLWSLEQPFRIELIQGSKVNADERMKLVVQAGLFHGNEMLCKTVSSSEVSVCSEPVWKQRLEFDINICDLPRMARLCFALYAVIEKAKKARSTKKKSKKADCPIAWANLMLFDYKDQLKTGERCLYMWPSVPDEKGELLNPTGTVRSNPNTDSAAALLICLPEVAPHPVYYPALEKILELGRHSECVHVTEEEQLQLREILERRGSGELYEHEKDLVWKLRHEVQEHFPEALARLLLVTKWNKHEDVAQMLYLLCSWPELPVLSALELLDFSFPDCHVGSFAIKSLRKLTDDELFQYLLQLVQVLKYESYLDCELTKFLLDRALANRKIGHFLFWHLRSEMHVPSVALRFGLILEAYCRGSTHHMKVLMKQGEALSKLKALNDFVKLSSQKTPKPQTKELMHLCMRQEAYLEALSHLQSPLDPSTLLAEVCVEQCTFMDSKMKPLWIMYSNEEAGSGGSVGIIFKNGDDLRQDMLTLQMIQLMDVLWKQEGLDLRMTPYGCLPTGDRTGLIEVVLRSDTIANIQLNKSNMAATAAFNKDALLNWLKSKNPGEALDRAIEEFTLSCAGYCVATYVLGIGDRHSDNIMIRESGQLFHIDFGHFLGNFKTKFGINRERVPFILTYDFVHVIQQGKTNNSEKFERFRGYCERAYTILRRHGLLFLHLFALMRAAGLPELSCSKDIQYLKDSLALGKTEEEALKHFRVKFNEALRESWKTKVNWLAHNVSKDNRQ
Nature of the series: Inhibition of recombinant human PI3Kdelta using PIP2 as substrate after 35 to 40 mins by HTRF assay.

Series [2] deals with Phosphatidylinositol 4,5-bisphosphate 3-kinase catalytic subunit alpha isoform (Homo sapiens, UniProt P42336). Nature of the series: Inhibition of human PI3Kalpha using phosphatidyl inositol as substrate after 3 hrs by Kinase-Glo Plus reagent-based luminescence assay. (In Kinase-Glo more light means more ATP remaining.)
Series [3] has as its target Phosphatidylinositol 4,5-bisphosphate 3-kinase catalytic subunit beta isoform (Homo sapiens, UniProt P42338). Nature of the series: Inhibition of recombinant human PI3Kbeta using PIP2 as substrate after 35 to 40 mins by HTRF assay. In general terms: TR-FRET usually uses a lanthanide donor and a delayed reading to cut background.
Series [4] concerns the target Phosphatidylinositol 4,5-bisphosphate 3-kinase catalytic subunit gamma isoform (Homo sapiens, UniProt P48736). Nature of the series: Inhibition of recombinant human PI3Kgamma using PIP2 as substrate after 35 to 40 mins by HTRF assay.
In series [5] the test system is B-cell. Nature of the series: Antiproliferative activity against anti-IgM antibody-stimulated BALB/c mouse B cells after 2 days by Alamar Blue reagent-based assay. The conditions noted are these: 48 h. In general terms: Alamar Blue is a resazurin reagent that responds to reducing activity.
Series [6] can be described thus: Intrinsic clearance in CD1 mouse liver microsomes at 0.2 uM up to 45 mins in presence of NADPH by LC-MS/MS analysis. The conditions noted are these: read-out: CLH. The class given is ADME, Microsome.
Series [7] in a line: Aqueous solubility of compound at pH 6.8 Japanese Pharmacopoeia 2nd fluid for disintegration test at 130 uM after 20 hrs by liquid chromatography method. The class given is physicochemical.
Series [8] in a line: Permeability of the compound at 50 uM after 2 hrs by PAMPA. The series is classed as ADME. The conditions noted are these: read-out: permeability.
The target of series [9] is T2, Cytochrome P450 1A2 (Homo sapiens, UniProt P05177).
T2 sequence (P05177 whole entry): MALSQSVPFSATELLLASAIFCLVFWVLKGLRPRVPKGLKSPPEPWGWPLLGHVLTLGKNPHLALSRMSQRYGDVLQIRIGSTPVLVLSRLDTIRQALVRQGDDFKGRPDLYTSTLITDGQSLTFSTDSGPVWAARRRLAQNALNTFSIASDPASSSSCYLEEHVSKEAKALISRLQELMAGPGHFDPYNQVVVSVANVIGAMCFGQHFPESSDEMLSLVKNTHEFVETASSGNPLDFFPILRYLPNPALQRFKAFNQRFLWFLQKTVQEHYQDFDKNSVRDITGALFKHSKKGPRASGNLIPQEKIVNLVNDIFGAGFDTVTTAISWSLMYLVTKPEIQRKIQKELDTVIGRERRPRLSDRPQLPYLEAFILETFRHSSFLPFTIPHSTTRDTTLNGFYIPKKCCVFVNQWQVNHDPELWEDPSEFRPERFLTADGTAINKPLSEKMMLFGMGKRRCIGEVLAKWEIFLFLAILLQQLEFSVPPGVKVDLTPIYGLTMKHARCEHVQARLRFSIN
Nature of the series: Inhibition of CYP1A2 in human liver microsomes at 5 uM using phenacetin as substrate after 20 mins by LC-MS/MS analysis. The class given is ADME.

Series [10] has as its target T3, Cytochrome P450 2C8 (Homo sapiens, UniProt P10632).
T3 sequence (P10632 whole entry): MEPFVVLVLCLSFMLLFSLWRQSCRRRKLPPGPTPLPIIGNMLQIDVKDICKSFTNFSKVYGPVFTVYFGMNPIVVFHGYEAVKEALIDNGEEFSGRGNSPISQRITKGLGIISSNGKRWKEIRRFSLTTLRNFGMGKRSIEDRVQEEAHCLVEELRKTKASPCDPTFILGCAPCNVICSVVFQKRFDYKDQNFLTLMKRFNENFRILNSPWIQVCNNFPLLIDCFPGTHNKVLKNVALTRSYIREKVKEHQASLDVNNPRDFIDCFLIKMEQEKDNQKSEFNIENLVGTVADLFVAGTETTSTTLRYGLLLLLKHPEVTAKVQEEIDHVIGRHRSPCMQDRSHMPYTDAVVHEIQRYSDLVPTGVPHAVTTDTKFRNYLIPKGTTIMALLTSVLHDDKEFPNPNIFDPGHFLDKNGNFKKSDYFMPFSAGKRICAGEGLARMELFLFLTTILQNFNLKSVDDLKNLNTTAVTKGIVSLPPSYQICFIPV
Nature of the series: Inhibition of CYP2C8 in human liver microsomes at 5 uM using amodiaquine as substrate after 20 mins by LC-MS/MS analysis. The series is classed as ADME.

The target in series [11] is Cytochrome P450 2C9 (Homo sapiens, UniProt P11712). Nature of the series: Inhibition of CYP2C9 in human liver microsomes at 5 uM using diclofenac as substrate after 20 mins by LC-MS/MS analysis. The class given is ADME.
Series [12] has as its target Cytochrome P450 2C19 (Homo sapiens, UniProt P33261). Nature of the series: Inhibition of CYP2C19 in human liver microsomes at 5 uM using S-mephenytoin as substrate after 20 mins by LC-MS/MS analysis. The series is classed as ADME.
In series [13] the target is Cytochrome P450 2D6 (Homo sapiens, UniProt P10635). Nature of the series: Inhibition of CYP2D6 in human liver microsomes at 5 uM using dextromethorphan as substrate after 20 mins by LC-MS/MS analysis. The series is classed as ADME.
Series [14] addresses Cytochrome P450 3A4 (Homo sapiens, UniProt P08684). Nature of the series: Inhibition of CYP3A4 in human liver microsomes at 5 uM using midazolam as substrate after 20 mins by LC-MS/MS analysis. The class given is ADME.
The nature of series [15]: Total clearance in BALB/c mouse at 1 mg/kg, iv or 3 mg/kg, po by LC-MS/MS analysis. The class given is ADME, organism-based. The conditions noted are these: in vivo.
A short description of series [16]: Volume of distribution at steady state in BALB/c mouse at 1 mg/kg, iv or 3 mg/kg, po by LC-MS/MS analysis. The series is classed as ADME, organism-based. The conditions noted are these: in vivo, read-out: Vdss.
Series [17] is described as follows: Half life in BALB/c mouse at 1 mg/kg, iv or 3 mg/kg, po by LC-MS/MS analysis. The class given is ADME, organism-based. The conditions noted are these: in vivo.
Series [18] is described as follows: Cmax in BALB/c mouse at 1 mg/kg, iv or 3 mg/kg, po by LC-MS/MS analysis. The series is classed as ADME, organism-based. The conditions noted are these: in vivo.
A short description of series [19]: Tmax in BALB/c mouse at 1 mg/kg, iv or 3 mg/kg, po by LC-MS/MS analysis. The class given is ADME, organism-based. The conditions noted are these: in vivo.
Series [20] can be described thus: AUC (24 hrs) in BALB/c mouse at 3 mg/kg, po by LC-MS/MS analysis. The class given is ADME, organism-based. The arrangement: dose 3 mg/kg, time < 24 hr, route oral. The conditions noted are these: in vivo.
Series [21] can be described thus: Unbound fraction in mouse plasma at 2 uM incubated for 6 hrs by LC-MS/MS analysis. The class given is ADME, cell-free.
Series [22] can be described thus: Oral bioavailability in BALB/c mouse at 3 mg/kg by LC-MS/MS analysis. The class given is ADME, organism-based. The conditions noted are these: in vivo.
Series [23] deals with Mus musculus. Nature of the series: Inhibition of TNP-Ficoll induced antibody production in po dosed BALB/c mouse administered twice daily measured on day 4 by ELISA. The class given is functional, organism-based.
In series [24] the test system is Mus musculus. Nature of the series: Inhibition of TNP-Ficoll induced antibody production in BALB/c mouse at 2 mg/kg, po qd measured on day 4 by ELISA. The class given is functional, organism-based.

Cytochrome P450 3A4, sequence (P08684 whole entry): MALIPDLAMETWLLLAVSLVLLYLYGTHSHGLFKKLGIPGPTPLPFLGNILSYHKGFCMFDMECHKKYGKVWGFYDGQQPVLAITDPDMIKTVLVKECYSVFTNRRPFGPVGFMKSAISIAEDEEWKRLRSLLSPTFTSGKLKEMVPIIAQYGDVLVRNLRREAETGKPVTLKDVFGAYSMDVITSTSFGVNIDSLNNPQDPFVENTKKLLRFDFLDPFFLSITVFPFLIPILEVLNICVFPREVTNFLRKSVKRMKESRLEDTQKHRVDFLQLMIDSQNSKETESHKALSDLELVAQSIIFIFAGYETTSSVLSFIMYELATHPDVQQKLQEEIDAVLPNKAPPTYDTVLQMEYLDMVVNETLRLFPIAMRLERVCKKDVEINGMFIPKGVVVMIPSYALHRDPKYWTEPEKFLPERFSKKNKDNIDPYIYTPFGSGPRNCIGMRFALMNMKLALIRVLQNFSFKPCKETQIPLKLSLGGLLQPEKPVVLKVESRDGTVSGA
Phosphatidylinositol 4,5-bisphosphate 3-kinase catalytic subunit beta isoform, sequence (P42338 whole entry, canonical isoform): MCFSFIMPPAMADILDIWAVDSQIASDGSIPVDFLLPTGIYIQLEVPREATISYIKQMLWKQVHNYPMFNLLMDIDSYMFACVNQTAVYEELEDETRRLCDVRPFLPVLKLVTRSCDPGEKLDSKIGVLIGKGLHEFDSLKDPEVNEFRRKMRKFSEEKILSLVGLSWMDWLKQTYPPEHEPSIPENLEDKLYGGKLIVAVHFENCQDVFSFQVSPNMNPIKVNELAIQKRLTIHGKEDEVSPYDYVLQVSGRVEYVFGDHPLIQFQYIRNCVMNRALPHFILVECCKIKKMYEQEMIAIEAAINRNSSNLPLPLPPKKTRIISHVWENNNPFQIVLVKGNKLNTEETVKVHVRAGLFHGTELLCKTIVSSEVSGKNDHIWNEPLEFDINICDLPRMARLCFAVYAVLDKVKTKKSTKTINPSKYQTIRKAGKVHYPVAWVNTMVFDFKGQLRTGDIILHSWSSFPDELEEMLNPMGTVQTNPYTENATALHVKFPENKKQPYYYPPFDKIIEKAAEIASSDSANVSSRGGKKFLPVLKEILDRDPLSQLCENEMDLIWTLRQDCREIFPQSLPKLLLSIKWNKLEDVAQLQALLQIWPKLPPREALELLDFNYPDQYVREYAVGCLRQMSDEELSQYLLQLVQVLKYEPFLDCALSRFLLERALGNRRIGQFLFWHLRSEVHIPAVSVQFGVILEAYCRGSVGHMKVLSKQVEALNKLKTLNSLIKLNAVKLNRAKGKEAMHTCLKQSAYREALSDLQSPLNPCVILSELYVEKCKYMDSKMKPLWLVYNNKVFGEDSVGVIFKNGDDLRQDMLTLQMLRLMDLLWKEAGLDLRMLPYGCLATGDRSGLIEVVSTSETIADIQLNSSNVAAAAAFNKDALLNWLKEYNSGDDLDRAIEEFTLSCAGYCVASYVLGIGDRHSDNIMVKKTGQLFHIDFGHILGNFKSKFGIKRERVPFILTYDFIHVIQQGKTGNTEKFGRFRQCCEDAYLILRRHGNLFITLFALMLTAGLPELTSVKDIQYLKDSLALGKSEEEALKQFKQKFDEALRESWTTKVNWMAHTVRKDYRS
Phosphatidylinositol 4,5-bisphosphate 3-kinase catalytic subunit gamma isoform, sequence (P48736 whole entry, canonical isoform): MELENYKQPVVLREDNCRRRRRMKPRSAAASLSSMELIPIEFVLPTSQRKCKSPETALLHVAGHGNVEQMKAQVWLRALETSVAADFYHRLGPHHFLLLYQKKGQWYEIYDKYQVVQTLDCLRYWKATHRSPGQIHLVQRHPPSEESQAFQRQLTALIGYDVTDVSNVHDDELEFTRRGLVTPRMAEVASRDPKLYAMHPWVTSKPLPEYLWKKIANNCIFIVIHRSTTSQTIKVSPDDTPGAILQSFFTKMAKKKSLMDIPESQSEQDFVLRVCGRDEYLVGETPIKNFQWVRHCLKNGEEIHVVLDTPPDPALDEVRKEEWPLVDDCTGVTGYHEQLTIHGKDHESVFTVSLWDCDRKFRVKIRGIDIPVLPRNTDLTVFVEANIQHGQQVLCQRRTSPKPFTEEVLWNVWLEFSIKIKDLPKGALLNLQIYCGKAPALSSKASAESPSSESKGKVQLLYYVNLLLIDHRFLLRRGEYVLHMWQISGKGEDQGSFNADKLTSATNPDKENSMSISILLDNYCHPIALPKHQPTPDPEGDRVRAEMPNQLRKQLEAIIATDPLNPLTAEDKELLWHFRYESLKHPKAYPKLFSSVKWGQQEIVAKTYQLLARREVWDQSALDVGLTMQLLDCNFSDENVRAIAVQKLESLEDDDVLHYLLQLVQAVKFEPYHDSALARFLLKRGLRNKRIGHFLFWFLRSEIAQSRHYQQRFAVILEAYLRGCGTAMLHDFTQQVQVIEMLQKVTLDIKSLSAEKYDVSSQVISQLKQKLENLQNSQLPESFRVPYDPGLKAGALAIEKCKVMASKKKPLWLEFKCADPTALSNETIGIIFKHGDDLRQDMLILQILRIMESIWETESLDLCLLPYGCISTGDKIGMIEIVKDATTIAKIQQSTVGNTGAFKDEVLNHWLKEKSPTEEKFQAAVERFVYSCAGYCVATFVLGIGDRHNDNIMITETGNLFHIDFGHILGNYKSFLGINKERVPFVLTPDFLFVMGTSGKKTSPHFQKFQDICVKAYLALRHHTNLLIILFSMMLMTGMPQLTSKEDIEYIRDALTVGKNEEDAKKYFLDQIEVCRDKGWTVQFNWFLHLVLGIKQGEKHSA
Phosphatidylinositol 4,5-bisphosphate 3-kinase catalytic subunit alpha isoform, sequence (P42336 whole entry, canonical isoform): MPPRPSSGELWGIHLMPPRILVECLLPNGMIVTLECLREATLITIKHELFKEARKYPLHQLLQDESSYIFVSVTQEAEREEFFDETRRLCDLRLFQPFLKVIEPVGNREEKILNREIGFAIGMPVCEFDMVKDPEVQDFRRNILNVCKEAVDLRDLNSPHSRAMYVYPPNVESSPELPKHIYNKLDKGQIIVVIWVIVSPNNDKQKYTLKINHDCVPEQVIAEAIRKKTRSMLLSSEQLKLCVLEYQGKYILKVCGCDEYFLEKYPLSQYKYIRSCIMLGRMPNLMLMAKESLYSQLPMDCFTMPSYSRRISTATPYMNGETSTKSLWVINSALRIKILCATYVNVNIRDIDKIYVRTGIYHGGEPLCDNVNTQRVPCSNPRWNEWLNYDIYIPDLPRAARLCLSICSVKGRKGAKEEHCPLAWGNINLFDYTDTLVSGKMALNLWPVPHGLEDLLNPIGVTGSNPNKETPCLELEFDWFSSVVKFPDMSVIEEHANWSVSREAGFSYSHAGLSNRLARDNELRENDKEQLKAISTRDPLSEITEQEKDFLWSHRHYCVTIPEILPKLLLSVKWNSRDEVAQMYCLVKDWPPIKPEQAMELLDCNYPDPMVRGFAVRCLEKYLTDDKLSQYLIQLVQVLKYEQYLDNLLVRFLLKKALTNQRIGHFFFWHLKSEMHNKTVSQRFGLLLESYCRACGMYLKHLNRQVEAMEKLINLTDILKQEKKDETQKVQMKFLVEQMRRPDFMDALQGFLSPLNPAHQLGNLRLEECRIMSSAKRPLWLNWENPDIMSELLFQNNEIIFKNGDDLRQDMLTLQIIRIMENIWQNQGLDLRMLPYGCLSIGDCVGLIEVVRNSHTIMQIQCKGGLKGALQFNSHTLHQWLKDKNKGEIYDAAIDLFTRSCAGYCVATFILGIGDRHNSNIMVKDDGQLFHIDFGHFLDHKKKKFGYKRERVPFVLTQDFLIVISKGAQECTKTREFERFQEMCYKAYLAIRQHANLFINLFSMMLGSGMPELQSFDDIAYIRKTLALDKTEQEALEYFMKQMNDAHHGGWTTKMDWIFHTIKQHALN
Cytochrome P450 2C9, sequence (P11712 whole entry): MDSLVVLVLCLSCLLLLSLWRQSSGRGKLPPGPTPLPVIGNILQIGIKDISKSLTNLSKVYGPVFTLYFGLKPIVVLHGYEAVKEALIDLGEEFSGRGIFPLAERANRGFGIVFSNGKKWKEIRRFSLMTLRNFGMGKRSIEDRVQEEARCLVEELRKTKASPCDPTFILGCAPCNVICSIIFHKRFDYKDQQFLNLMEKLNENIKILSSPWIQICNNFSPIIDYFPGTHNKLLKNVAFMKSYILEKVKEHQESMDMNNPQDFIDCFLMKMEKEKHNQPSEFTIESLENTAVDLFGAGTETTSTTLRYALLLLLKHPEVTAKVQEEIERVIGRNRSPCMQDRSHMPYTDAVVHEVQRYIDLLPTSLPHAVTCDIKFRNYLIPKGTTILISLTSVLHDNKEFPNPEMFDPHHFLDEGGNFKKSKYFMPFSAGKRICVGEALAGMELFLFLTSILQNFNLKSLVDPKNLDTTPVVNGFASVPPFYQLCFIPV
Cytochrome P450 2D6, sequence (P10635 whole entry): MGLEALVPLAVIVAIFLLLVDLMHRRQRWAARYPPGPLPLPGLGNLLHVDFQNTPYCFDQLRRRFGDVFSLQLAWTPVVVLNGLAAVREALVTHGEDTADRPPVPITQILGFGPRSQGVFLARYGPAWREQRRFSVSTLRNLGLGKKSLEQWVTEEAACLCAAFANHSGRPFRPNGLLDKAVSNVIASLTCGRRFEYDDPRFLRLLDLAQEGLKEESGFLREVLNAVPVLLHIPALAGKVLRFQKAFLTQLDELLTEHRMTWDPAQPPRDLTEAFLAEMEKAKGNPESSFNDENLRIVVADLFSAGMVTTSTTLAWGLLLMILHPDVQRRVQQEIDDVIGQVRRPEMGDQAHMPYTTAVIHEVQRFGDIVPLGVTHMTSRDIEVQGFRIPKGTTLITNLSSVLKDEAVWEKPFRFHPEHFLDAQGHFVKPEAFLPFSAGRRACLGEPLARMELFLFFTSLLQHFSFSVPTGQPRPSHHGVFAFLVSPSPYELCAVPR

One may read the IC50 as the midpoint of a concentration-inhibition curve. One may read the solubility as the concentration that dissolves in the medium under given conditions. Higher therefore signals a readily soluble substance. By half-life is commonly meant the time needed for the level to fall by half in the phase considered. Lower therefore signals rapid decline. The term Cmax denotes the peak of the concentration-time curve. By Tmax is commonly meant the time from dosing to the highest level. Usually AUC stands for the area under the concentration-time curve, a measure of exposure. Low values mean low exposure, high ones high exposure. One may read the fraction unbound as free concentration divided by total concentration. As usually defined, the bioavailability is the share of a dose that reaches the circulation, judged against a reference dose that is usually intravenous. For `COc1ncc(N2CCc3ncnc(-c4ccnc(NC5CCN(C)CC5)c4)c3C2)cc1C`, the 50% inhibitory concentration (IC50) in [1] was 7 nM; in series [2] it was more than 10000 nM; in series [3] it was more than 10000 nM; in [4], more than 10000 nM; in series [5] it was 3.2 nM. The CLint scaled at 0.2 µM in series [6] was 81 mL/min/kg. Further, the solubility at 20 h, 130 µM in [7] was more than 100 µM. For the same compound, the Papp at 2 h, 50 µM in series [8] is 9.3 ×10⁻⁶ cm/s. In addition, the “inhibition (INH)” value in series [9], in series [10], in series [11], in series [12], in series [13] and in series [14] was “Not Active” each time. Moreover, the clearance in series [15] came out at 21.9 mL/min/kg. The Vd in series [16] is 7.17 L/kg. The compound further showed a half-life in series [17] of 4 h. For the same compound, in [18], the Cmax was found to be 160 ng/mL. In addition, the Tmax in series [19] was found to be 6 h. This compound also displayed an AUC at 24 h in series [20] of 2210 ng·h/mL. The compound also gave a fraction unbound at 6 h, 2 µM in series [21] of 0.3. Moreover, the bioavailability in series [22] amounted to 97%. Besides, the inhibition entry in series [23] is “Dose-dependent effect”. The inhibition result in series [24] is “Active”.
